Source: patent publication US9657022B2, “7-OXO-1,6-diazabicyclo[3.2.1]octane derivatives and their use as antibacterial agents” (WOCKHARDT LIMITED, priority 2014, dated 2017)
Converted amounts (≈) assume the structure as drawn.

Legend:
[1] = tested on: E. coli NCTC 13353; assay: Zone of inhibition, agar well, with and without ceftazidime; format: cell-based; details: E. coli NCTC 13353
Experimental: (§1) In a typical experiment, two sets of plates containing growth media (Molten Mueller Hilton Agar) and bacterial strains were prepared. One set of plates was taken as control (without ceftazidime) and other set contained ceftazidime. The media was allowed to solidify and wells were punched later, into which varying concentrations of compounds according to the invention were poured. A two-fold serial dilution range of each of the compounds according to invention was prepared and 50 μl of each of the dilution was added into the punched well. The plates were then incubated at 37° C. for 18 hours in BOD incubator and diameters of zone of inhibition were measured after the completion of the incubation.
(§2) The Table 6 provides the antibacterial activity of the combination comprising compounds according to invention and ceftazidime. The compounds according to invention were tested at 0.12, 0.25, 0.5 and 1 μg/well.

[2] = tested on: E. coli M50; assay: as above; format: cell-based; details: E. coli M50
Experimental: as §1, §2

[3] = tested on: K. pneumoniae H521 (KPC, SHV, TEM); assay: Antibacterial activity (MIC), agar dilution per CLSI; format: cell-based; details: Klebsiella pneumoniae; K. pneumoniae H521 (KPC, SHV, TEM); read-out: MIC
Experimental: (§3) The biological activity of representative compounds according to the invention against various bacterial strains was investigated. In a typical study, overnight grown bacterial cultures were diluted appropriately and inoculated on the agar media containing doubling dilutions of the test compounds. Observations for growth or no growth was performed after 16-20 hours of incubation at 35±2° C. in the ambient air. The overall procedure was performed as per Clinical and Laboratory Standards Institute (CLSI) recommendations, (Clinical and Laboratory Standards Institute (CLSI), Performance Standards for Antimicrobial Susceptibility Testing, 20th Informational Supplement, M07-A9, Volume 32, No. 2, 2012). Molten Mueller Hinton Agar (BD, USA) containing serial dilutions of each antibacterial agent were poured on to the plates and allowed to solidify. Appropriate suspensions from the freshly grown cultures were prepared in normal saline so that about 10^4 CFU/spot of the organism was delivered on to the drug containing agar plates using automated multipoint inoculator (Mast, UK). The plates were incubated in Biochemical oxygen demand (BOD) incubator at 37° C. for 18 hours and then examined for growth.
(§4) The strains selected for study included E. coli NCTC 13353 producing CTX-M15 and OXA-1 beta-lactamase enzymes; K. pneumoniae H521 producing KPC, SHV, TEM beta-lactamase enzymes; and K. pneumoniae S48 producing NDM, SHV, TEM beta-lactamase enzymes. The activities are expressed as Minimum Inhibitory Concentrations (MICs) (mcg/ml).
(§5) The activities are expressed as Minimum Inhibitory Concentrations (MICs) (mcg/ml).

[4] = tested on: E. coli NCTC 13353 (CTX-M15, OXA-1); assay: as above; format: cell-based; details: Escherichia coli, NCTC13353; E. coli NCTC 13353 (CTX-M15, OXA-1); read-out: MIC
Experimental: as §3, §4, §5

[5] = biological target: T1, Class C beta-lactamase P99 (E. cloacae J137) (Enterobacter cloacae, UniProt P05364); assay: Beta-lactamase enzyme inhibition (Nitrocefin, crude enzyme); format: biochemical
T1 construct: preincubated mixture of crude enzyme and the compounds; endogenous in cells; host or cells: E. cloacae J137
Experimental: (§6) Absorbance was measured at 485 nm by UV-spectrophotometer. The IC50 was calculated by plotting absorbance against concentration through Sigmoidal dose response curve using Graph Pad software.

[6] = biological target: Class D beta-lactamase OXA 26 (A. baumannii NCTC 13303) (Acinetobacter baumannii, UniProt Q9F0V2); assay: as above; format: biochemical; details: A. baumannii NCTC 13303 (OXA 26), read-out: Beta-lactamase enzyme inhibition IC50
Experimental: as §6

[7] = tested on: C. frundaii 58 MP; assay: Antibacterial activity (MIC), agar dilution per CLSI; format: cell-based
Experimental: as §3
(§7) Table 3 details the antibacterial activity of representative compound of Formula (I), (2S,5R)-sulfuric acid mono-{2-[N′-(2-(S)-pyrrolidin-2-yl-acetyl)-hydrazinocarbonyl]-7-oxo-1,6-diaza-bicyclo[3.2.1]oct-6-yl}ester (Compound of Example 1), against various Multi Drug Resistant (MDR) Gram-negative bacterial strains. The activities are expressed as Minimum Inhibitory Concentrations (MICs) (mcg/ml).

[8] = tested on: E. cloacae M 20; assay: as above; format: cell-based; details: Enterobacter cloacae, M20
Experimental: as §3, §7

[9] = tested on: E. coli 7 MP; assay: as above; format: cell-based; details: Escherichia coli
Experimental: as §3, §7

[10] = tested on: K. pneumoniae S 21; assay: as above; format: cell-based; details: Klebsiella pneumoniae, S21
Experimental: as §3, §7

[11] = tested on: E. coli NCTC 13351; assay: as above; format: cell-based; details: Escherichia coli, NCTC13351
Experimental: as §3, §7

[12] = tested on: P. aeruginosa ATCC 27853; assay: as above; format: cell-based; details: Pseudomonas aeruginosa, ATCC27853
Experimental: as §3, §7

[13] = tested on: P. aeruginosa PAO1; assay: as above; format: cell-based; details: Pseudomonas aeruginosa
Experimental: as §3, §7

[14] = tested on: K. pneumoniae B 88; assay: as above; format: cell-based; details: Klebsiella pneumoniae, B88
Experimental: as §3, §7

[15] = tested on: E. coli M 50; assay: as above; format: cell-based; details: Escherichia coli, M50
Experimental: as §3, §7

[16] = tested on: E. coli NCTC 13352; assay: as above; format: cell-based; details: Escherichia coli, NCTC13352
Experimental: as §3, §7

[17] = tested on: E. coli M 49; assay: as above; format: cell-based; details: Escherichia coli, M49
Experimental: as §3, §7

[18] = tested on: P. aeruginosa 2779; assay: as above; format: cell-based; details: Pseudomonas aeruginosa
Experimental: as §3, §7

[19] = tested on: P. aeruginosa R 20; assay: as above; format: cell-based; details: Pseudomonas aeruginosa, R20
Experimental: as §3, §7

[20] = tested on: K. pneumoniae H 525; assay: as above; format: cell-based; details: Klebsiella pneumoniae, H525
Experimental: as §3, §7

[21] = compound 0.25 μg/well + Ceftazidime 10 μg/ml
[22] = compound 0.5 μg/well + Ceftazidime 10 μg/ml
[23] = compound 1 μg/well + Ceftazidime 10 μg/ml
[24] = compound […] + Ceftazidime 10 μg/ml

T1 sequence (P05364 21-381): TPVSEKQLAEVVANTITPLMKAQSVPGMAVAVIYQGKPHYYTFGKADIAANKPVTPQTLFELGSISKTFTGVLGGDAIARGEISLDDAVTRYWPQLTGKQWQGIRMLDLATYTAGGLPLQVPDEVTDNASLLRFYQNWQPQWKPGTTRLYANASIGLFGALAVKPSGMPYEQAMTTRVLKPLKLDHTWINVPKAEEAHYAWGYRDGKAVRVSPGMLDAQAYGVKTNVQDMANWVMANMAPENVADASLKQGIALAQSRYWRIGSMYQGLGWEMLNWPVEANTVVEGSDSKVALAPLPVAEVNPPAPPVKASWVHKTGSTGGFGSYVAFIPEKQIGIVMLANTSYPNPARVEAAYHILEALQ
Chain of Class D beta-lactamase OXA 26 (A. baumannii NCTC 13303) (Q9F0V2 entry or part of it): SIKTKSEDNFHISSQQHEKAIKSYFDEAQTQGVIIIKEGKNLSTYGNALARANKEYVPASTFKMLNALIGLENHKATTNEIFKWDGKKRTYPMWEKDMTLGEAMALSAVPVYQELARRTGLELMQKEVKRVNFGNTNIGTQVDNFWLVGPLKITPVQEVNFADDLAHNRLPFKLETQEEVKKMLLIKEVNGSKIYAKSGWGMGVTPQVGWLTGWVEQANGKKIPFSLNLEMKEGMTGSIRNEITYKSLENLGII

O=C(C[C@@H]1CCCN1)NNC(=O)[C@@H]1CC[C@@H]2CN1C(=O)N2OS(=O)(=O)O [Example 1, (2S,5R)-Sulfuric acid mono-{2-[N′-(2-(S)-pyrrolidin-2-yl-acetyl)-hydrazinocarbonyl]-7-oxo-1,6-diaza-bicyclo[3.2.1]oct-6-yl}ester]
Diameter of Zone of Inhibition, Compound + Ceftazidime (10 μg/ml) [1, 21]: 26 mm
Diameter of Zone of Inhibition, Compound + Ceftazidime (10 μg/ml) [1, 22]: 28 mm
Diameter of Zone of Inhibition, Compound + Ceftazidime (10 μg/ml) [1, 23]: 31 mm
Diameter of Zone of Inhibition, Compound + Ceftazidime (10 μg/ml) [1, 24]: 22 mm
zone of inhibition at […] ([1]; Escherichia coli, NCTC13353, compound alone, 0.12 μg/well, read-out: Diameter of Zone of Inhibition, Compound): 11.5 mm
zone of inhibition at 0.25 µg/disc ([1]; Escherichia coli, NCTC13353, compound alone, 0.25 μg/well, read-out: Diameter of Zone of Inhibition, Compound): 14 mm
zone of inhibition at 0.5 µg/disc ([1]; Escherichia coli, NCTC13353, compound alone, 0.5 μg/well, read-out: Diameter of Zone of Inhibition, Compound): 15 mm
zone of inhibition at 1 µg/disc ([1]; Escherichia coli, NCTC13353, compound alone, 1 μg/well, read-out: Diameter of Zone of Inhibition, Compound): 16.5 mm
Diameter of Zone of Inhibition, Compound + Ceftazidime (10 μg/ml) [2, 21]: 19 mm
Diameter of Zone of Inhibition, Compound + Ceftazidime (10 μg/ml) [2, 22]: 20.5 mm
Diameter of Zone of Inhibition, Compound + Ceftazidime (10 μg/ml) [2, 23]: 22.5 mm
Diameter of Zone of Inhibition, Compound + Ceftazidime (10 μg/ml) [2, 24]: 17 mm
zone of inhibition at […] ([2]; Escherichia coli, compound alone, 0.12 μg/well, read-out: Diameter of Zone of Inhibition, Compound): 10.5 mm
zone of inhibition at 0.25 µg/disc ([2]; Escherichia coli, compound alone, 0.25 μg/well, read-out: Diameter of Zone of Inhibition, Compound): 14 mm
zone of inhibition at 0.5 µg/disc ([2]; Escherichia coli, compound alone, 0.5 μg/well, read-out: Diameter of Zone of Inhibition, Compound): 16 mm
zone of inhibition at 1 µg/disc ([2]; Escherichia coli, compound alone, 1 μg/well, read-out: Diameter of Zone of Inhibition, Compound): 18 mm
MIC [3]: 0.5 µg/mL (≈ 1.28 µM)
MIC [4]: 0.5 µg/mL (≈ 1.28 µM)
IC50 [5]: 27 nM
IC50 [6]: 4770 nM
MIC [7]: 0.5 µg/mL (≈ 1.28 µM)
MIC [8]: 0.5 µg/mL (≈ 1.28 µM)
MIC [9]: 1 µg/mL (≈ 2.55 µM)
MIC [10]: 2 µg/mL (≈ 5.11 µM)
MIC [11]: 0.5 µg/mL (≈ 1.28 µM)
MIC [12]: 8 µg/mL (≈ 20.4 µM)
MIC [13]: 4 µg/mL (≈ 10.2 µM)
MIC [14]: 0.5 µg/mL (≈ 1.28 µM)
MIC [15]: 0.5 µg/mL (≈ 1.28 µM)
MIC [16]: 0.5 µg/mL (≈ 1.28 µM)
MIC [17]: 2 µg/mL (≈ 5.11 µM)
MIC [18]: 8 µg/mL (≈ 20.4 µM)
MIC [19]: 16 µg/mL (≈ 40.9 µM)
MIC [20]: 0.5 µg/mL (≈ 1.28 µM)
